Results: patent publication US10287305B2, “Substituted piperidine compound and use thereof” (Takeda Pharmaceutical Company Limited, priority 2016, dated 2019)

Target: human orexin type 2 receptor (hOX2R) (Homo sapiens (Human), UniProt O43614)
Experiment: Measurement of orexin type 2 receptor agonist activity (Experimental Example 2-1, FLIPR TETRA, intracellular Ca2+)
Assay type: cell-based
Conditions: CHO dhfr- cells expressing hOX2R, FLIPR TETRA, Fluo-4AM; for Emax: read-out: Emax (%)

Sequence of human orexin type 2 receptor (hOX2R) (O43614 whole entry): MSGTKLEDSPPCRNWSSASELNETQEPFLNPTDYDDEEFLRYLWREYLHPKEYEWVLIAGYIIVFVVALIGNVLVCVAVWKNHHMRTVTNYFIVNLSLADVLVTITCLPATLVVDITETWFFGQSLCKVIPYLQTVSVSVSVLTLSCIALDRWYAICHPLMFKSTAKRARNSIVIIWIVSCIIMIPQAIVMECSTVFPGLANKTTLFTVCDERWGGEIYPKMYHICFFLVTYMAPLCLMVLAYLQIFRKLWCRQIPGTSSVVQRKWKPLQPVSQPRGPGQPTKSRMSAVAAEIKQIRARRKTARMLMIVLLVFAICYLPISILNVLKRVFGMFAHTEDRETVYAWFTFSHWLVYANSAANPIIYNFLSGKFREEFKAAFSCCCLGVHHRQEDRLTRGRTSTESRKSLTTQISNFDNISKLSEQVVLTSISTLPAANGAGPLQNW

Row | Compound | EC50 [nM] | Emax [%] | Emax (%)
1 | CS(=O)(=O)N[C@H]1CCCN(C(=O)C2CC2)[C@H]1COC1CCN(c2ccccc2F)CC1 [Example 246, N-((2R,3S)-1-(cyclopropylcarbonyl)-2-(((1-(2-fluorophenyl)piperidin-4-yl)oxy)methyl)piperidin-3-yl)methanesulfonamide] | 730 | 113 | –
2 | COC(=O)N1CCC[C@H](NS(C)(=O)=O)[C@@H]1CO[C@H]1CC[C@@H](c2c(F)ccc(F)c2F)CC1 [Example 257, methyl (2R,3S)-3-((methylsulfonyl)amino)-2-(((cis-4-(2,3,6-trifluorophenyl)cyclohexyl)oxy)methyl)piperidine-1-carboxylate] | – | 97 | –
3 | CS(=O)(=O)N[C@H]1CCCN[C@H]1CO[C@H]1CC[C@@H](c2ccccc2F)CC1 [Example 260, N-((2R,3S)-2-(((cis-4-(2-fluorophenyl)cyclohexyl)oxy)methyl)piperidin-3-yl)methanesulfonamide] | 550 | 99 | –
4 | CC(C)OC(=O)N1CCC[C@H](NS(C)(=O)=O)[C@@H]1CO[C@H]1CC[C@@H](c2cccc(F)c2)CC1 [Example 264, isopropyl (2R,3S)-2-(((cis-4-(3-fluorophenyl)cyclohexyl)oxy)methyl)-3-((methylsulfonyl)amino)piperidine-1-carboxylate] | 21 | 91 | –
5 | CS(=O)(=O)N[C@H]1CCCN(C(=O)OC2CC2)[C@H]1CO[C@H]1CC[C@@H](c2cccc(F)c2)CC1 [Example 272, cyclopropyl (2R,3S)-2-(((cis-4-(3-fluorophenyl)cyclohexyl)oxy)methyl)-3-((methylsulfonyl)amino)piperidine-1-carboxylate] | 28 | 96 | –
6 | COC(=O)N1CCC[C@H](NS(C)(=O)=O)[C@@H]1CO[C@H]1CC[C@@]2(CC1)OCc1ccccc12 [Example 274, methyl cis-3-((methylsulfonyl)amino)-2-(((1r,4′r)-3H-spiro[2-benzofuran-1,1′-cyclohexan]-4′-yloxy)methyl)piperidine-1-carboxylate] | 260 | 118 | –
7 | COC(=O)N1CCC[C@H](NS(C)(=O)=O)[C@@H]1CO[C@H]1CC[C@]2(CC1)OCc1ccccc12 [Example 275, methyl cis-3-((methylsulfonyl)amino)-2-(((1s,4′s)-3H-spiro[2-benzofuran-1,1′-cyclohexan]-4′-yloxy)methyl)piperidine-1-carboxylate] | 3100 | 87 | –
8 | CS(=O)(=O)N[C@H]1CCCN(C(=O)OCC(F)(F)F)[C@H]1CO[C@H]1CC[C@@H](c2cccc(F)c2)CC1 [Example 276, 2,2,2-trifluoroethyl (2R,3S)-2-(((cis-4-(3-fluorophenyl)cyclohexyl)oxy)methyl)-3-((methylsulfonyl)amino)piperidine-1-carboxylate] | – | 95 | –
9 | COc1ccccc1[C@H]1CC[C@@H](OC[C@H]2[C@@H](NS(C)(=O)=O)CCCN2C(C)=O)CC1 [Example 291, N-((2R,3S)-1-acetyl-2-(((cis-4-(2-methoxyphenyl)cyclohexyl)oxy)methyl)piperidin-3-yl)methanesulfonamide] | 26 | 98 | –
10 | CCOC(=O)N1CCC[C@H](NS(C)(=O)=O)[C@@H]1CO[C@H]1CC[C@@H](c2ccccc2)CC1 [Example 303, ethyl (2R,3S)-3-((methylsulfonyl)amino)-2-(((cis-4-phenylcyclohexyl)oxy)methyl)-piperidine-1-carboxylate] | 15 | 102 | –
11 | COc1cccc([C@H]2CC[C@@H](OC[C@H]3[C@@H](NS(C)(=O)=O)CCCN3C(=O)C3CC3)CC2)c1 [Example 304, N-((2R,3S)-1-(cyclopropylcarbonyl)-2-(((cis-4-(3-methoxyphenyl)cyclohexyl)oxy)-methyl)piperidin-3-yl)methanesulfonamide] | 23 | 105 | –
12 | CS(=O)(=O)N[C@H]1CCCN(C(=O)OCC(F)(F)F)[C@H]1COC1CCN(c2ncccn2)CC1 [Example 305, 2,2,2-trifluoroethyl (2R,3S)-3-((methylsulfonyl)amino)-2-(((1-(pyrimidin-2-yl)piperidin-4-yl)oxy)methyl)piperidine-1-carboxylate] | 53 | – | 106
13 | CCc1ccccc1[C@H]1CC[C@@H](OC[C@H]2[C@@H](NS(C)(=O)=O)CCCN2C(C)=O)CC1 [Example 312, N-((2R,3S)-1-acetyl-2-(((cis-4-(2-ethylphenyl)cyclohexyl)oxy)methyl)-piperidin-3-yl)methanesulfonamide] | 32 | 98 | –
14 | Cc1ccccc1[C@H]1CC[C@@H](OC[C@@H]2NCCC[C@@H]2NS(C)(=O)=O)CC1 [Example 318, N-((2R,3S)-2-(((cis-4-(2-methylphenyl)cyclohexyl)oxy)-methyl)piperidin-3-yl)methanesulfonamide] | 1100 | 99 | –
15 | CC(=O)N1CCC[C@H](NS(C)(=O)=O)[C@@H]1CO[C@H]1CC[C@@H](c2ccccc2C)CC1 [Example 319, N-((2R,3S)-1-acetyl-2-(((cis-4-(2-methylphenyl)cyclohexyl)oxy)-methyl)piperidin-3-yl)methanesulfonamide] | 29 | 106 | –
16 | CS(=O)(=O)N[C@H]1CCCN[C@H]1CO[C@H]1CC[C@@H](c2ccccc2C(F)F)CC1 [Example 320, N-((2R,3S)-2-(((cis-4-(2-(difluoromethyl)phenyl)cyclohexyl)-oxy)methyl)piperidin-3-yl)methanesulfonamide] | 2000 | 74 | –
17 | CC(=O)N1CCC[C@H](NS(C)(=O)=O)[C@@H]1CO[C@H]1CC[C@@H](c2ccccc2C(F)F)CC1 [Example 323, N-((2R,3S)-1-acetyl-2-(((cis-4-(2-(difluoromethyl)phenyl)cyclohexyl)-oxy)methyl)piperidin-3-yl)methanesulfonamide] | 96 | 95 | –
18 | COC(=O)N1CCC[C@H](NS(C)(=O)=O)[C@@H]1CO[C@H]1CC[C@@H](c2ccccc2C(F)F)CC1 [Example 324, methyl (2R,3S)-2-(((cis-4-(2-(difluoromethyl)phenyl)cyclohexyl)-oxy)methyl)-3-((methylsulfonyl)amino)piperidine-1-carboxylate] | – | – | 95
19 | COC(=O)N1CCC[C@H](NS(C)(=O)=O)[C@@H]1CO[C@H]1CC[C@@](O)(c2ccccc2)CC1 [Example 331, methyl cis-2-(((trans-4-hydroxy-4-phenylcyclohexyl)oxy)methyl)-3-((methylsulfonyl)amino)piperidine-1-carboxylate] | – | 98 | –

Further compounds by falling EC50, results first:

Row | EC50 [nM] | Emax [%] | Emax (%) | Compound
20 | 13 | 101 | – | CS(=O)(=O)N[C@H]1CCCN(C(=O)CC(F)(F)F)[C@H]1CO[C@H]1CC[C@@H](c2ccccc2)CC1 [Example 306, N-((2R,3S)-2-(((cis-4-phenylcyclohexyl)oxy)methyl)-1-(3,3,3-trifluoropropanoyl)piperidin-3-yl)methanesulfonamide]
21 | 8.9 | 95 | – | CS(=O)(=O)N[C@H]1CCCN(C(=O)CO)[C@H]1CO[C@H]1CC[C@@H](c2ccccc2C(F)(F)F)CC1 [Example 283, N-((2R,3S)-1-glycoloyl-2-(((cis-4-(2-(trifluoromethyl)phenyl)cyclohexyl)oxy)methyl)piperidin-3-yl)methanesulfonamide]
22 | 3.4 | 94 | – | COC(=O)N1CCC[C@H](NS(C)(=O)=O)[C@@H]1CO[C@H]1CC[C@@H](c2ccccc2F)CC1 [Example 267, methyl (2R,3S)-2-(((cis-4-(2-fluorophenyl)cyclohexyl)oxy)methyl)-3-((methylsulfonyl)amino)piperidine-1-carboxylate]
23 | 3.1 | 106 | – | COC(=O)N1CCC[C@H](NS(=O)(=O)N(C)C)[C@@H]1CO[C@H]1CC[C@@H](c2ccccc2)CC1 [Example 309, methyl (2R,3S)-3-((dimethylsulfamoyl)amino)-2-(((cis-4-phenylcyclohexyl)oxy)methyl)-piperidine-1-carboxylate]
24 | 2.9 | 95 | – | COC(=O)N1CCC[C@H](NS(C)(=O)=O)[C@@H]1CO[C@H]1CC[C@@H](c2ccccc2OC)CC1 [Example 277, methyl (2R,3S)-2-(((cis-4-(2-methoxyphenyl)cyclohexyl)oxy)methyl)-3-((methylsulfonyl)amino)piperidine-1-carboxylate]
25 | 2.2 | 101 | – | CN(C)S(=O)(=O)N[C@H]1CCCN(C(=O)C2CC2)[C@H]1CO[C@H]1CC[C@@H](c2ccccc2)CC1 [Example 310, N′-((2R,3S)-1-(cyclopropylcarbonyl)-2-(((cis-4-phenylcyclohexyl)oxy)methyl)-piperidin-3-yl)-N,N-dimethylsulfuric diamide]
26 | 1.7 | 105 | – | CS(=O)(=O)N[C@H]1CCCN(C(=O)C2CC2)[C@H]1CO[C@H]1CC[C@@H](c2cccc(F)c2F)CC1 [Example 250, N-((2R,3S)-1-(cyclopropylcarbonyl)-2-(((cis-4-(2,3-difluorophenyl)cyclohexyl)oxy)methyl)piperidin-3-yl)methanesulfonamide]
27 | 1.5 | 103 | – | CS(=O)(=O)N[C@H]1CCCN(C(=O)C2CC2)[C@H]1CO[C@H]1CC[C@@H](c2ccccc2F)CC1 [Example 268, N-((2R,3S)-1-(cyclopropylcarbonyl)-2-(((cis-4-(2-fluorophenyl)cyclohexyl)oxy)methyl)piperidin-3-yl)methanesulfonamide]
28 | 0.72 | 101 | – | CS(=O)(=O)N[C@H]1CCCN(C(=O)C2CC2)[C@H]1CO[C@H]1CC[C@@H](c2c(F)ccc(F)c2F)CC1 [Example 258, N-((2R,3S)-1-(cyclopropylcarbonyl)-2-(((cis-4-(2,3,6-trifluorophenyl)cyclohexyl)oxy)methyl)piperidin-3-yl)methanesulfonamide]
29 | 0.55 | – | 93 | CCNC(=O)N1CCC[C@H](NS(C)(=O)=O)[C@@H]1CO[C@H]1CC[C@@H](c2ccccc2C(F)(F)F)CC1 [Example 282, (2R,3S)-N-ethyl-3-((methylsulfonyl)amino)-2-(((cis-4-(2-(trifluoromethyl)phenyl)cyclohexyl)oxy)methyl)piperidine-1-carboxamide]
